Data reported in article PMC3254236 (Bioorganic & Medicinal Chemistry, 2011).

Biological target: T1, full length murine FXR (Mus musculus, UniProt Q60641)
T1 sequence (Q60641 1-488): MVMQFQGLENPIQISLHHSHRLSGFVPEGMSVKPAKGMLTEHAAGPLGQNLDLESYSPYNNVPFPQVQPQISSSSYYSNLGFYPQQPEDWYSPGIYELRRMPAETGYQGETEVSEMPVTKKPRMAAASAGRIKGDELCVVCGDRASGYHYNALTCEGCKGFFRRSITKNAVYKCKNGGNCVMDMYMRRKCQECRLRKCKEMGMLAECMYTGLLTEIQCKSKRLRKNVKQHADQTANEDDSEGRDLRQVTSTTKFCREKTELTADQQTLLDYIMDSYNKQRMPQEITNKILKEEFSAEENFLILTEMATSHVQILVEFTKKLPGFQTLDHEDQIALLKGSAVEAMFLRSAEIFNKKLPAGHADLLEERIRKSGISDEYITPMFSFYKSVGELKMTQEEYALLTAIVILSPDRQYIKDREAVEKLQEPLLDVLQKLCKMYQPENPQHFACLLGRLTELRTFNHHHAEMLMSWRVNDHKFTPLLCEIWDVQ
T1 sequence (P28700 1-467 partner): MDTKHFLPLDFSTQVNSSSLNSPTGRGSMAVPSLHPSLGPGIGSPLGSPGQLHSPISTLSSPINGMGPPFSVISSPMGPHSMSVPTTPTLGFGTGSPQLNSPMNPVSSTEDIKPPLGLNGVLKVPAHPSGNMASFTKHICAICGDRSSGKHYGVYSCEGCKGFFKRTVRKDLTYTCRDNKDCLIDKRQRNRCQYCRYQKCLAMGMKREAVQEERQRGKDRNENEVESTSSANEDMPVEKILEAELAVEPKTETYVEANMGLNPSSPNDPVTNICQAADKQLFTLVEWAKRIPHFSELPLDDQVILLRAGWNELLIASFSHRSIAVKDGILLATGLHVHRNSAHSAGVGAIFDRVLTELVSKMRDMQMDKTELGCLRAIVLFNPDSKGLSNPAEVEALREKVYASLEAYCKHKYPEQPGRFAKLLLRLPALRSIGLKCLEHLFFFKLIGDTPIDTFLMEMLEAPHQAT
Experiment: Reporter gene assay for FXR activation
Format: cell-based
Settings: for FXR induction (percent of CDCA): pure compounds 10 μg/mL, compared with CDCA 25 μM; for Induction of FXR-dependent transcription: Ganoderma constituents 10 μM, normalized to CDCA 25 μM

Compound	FXR induction (percent of CDCA)	Induction of FXR-dependent transcription	EC50 (dose-dependent FXR reporter activation, test concentrations 0.1-50 μM) [µM]
C=CC(C)(C)c1cc2cc3c(cc2oc1=O)OC(C(C)(C)OC(C)=O)C3 (stereo not drawn) [rutamarin]	activated FXR significantly, but at lower extent than CDCA		
C[C@H](CC[C@H](O)[C@](C)(O)CO)[C@H]1CC[C@@]2(C)C3=CC[C@H]4C(C)(C)C(=O)CC[C@]4(C)C3=CC[C@]12C [Compound 13, ganodermanontriol]		reached statistical significance	
ganoderic acid TR [Compound 12]		reached statistical significance	> 14
COc1ccc(-c2oc3cc(OC)c(OC)c(O)c3c(=O)c2OC)cc1OC [artemisetin]	activated FXR significantly, but at lower extent than CDCA		
CC(C)[C@@H](C)/C=C/[C@@H](C)[C@H]1CC[C@@H]2[C@]1(C)CC[C@H]1[C@]23C=C[C@]2(C[C@@H](O)CC[C@]12C)OO3 [Compound 2, ergosterol peroxide]		reached statistical significance	
C[C@H](CCC=C(CO)CO)[C@H]1CC[C@@]2(C)C3=CC[C@H]4C(C)(C)C(=O)CC[C@]4(C)C3=CC[C@]12C [Compound 14, ganoderiol F]		reached statistical significance	
C[C@H](CC[C@H](O)C(C)(C)O)[C@H]1CC[C@@]2(C)C3=C(CC[C@]12C)[C@@]1(C)CCC(=O)C(C)(C)[C@@H]1CC3=O [Compound 11, lucidumol A]		reached statistical significance	
COc1cc(CNC(=O)CCCCCCC(C)C)ccc1O [dihydrocapsaicin]	No activation		
